# Experimental data reported in US20040058983A1, “Plan-derived and synthetic phenolic compounds and plant extracts, effective in the treatment and prevention of chlamydial infections” (priority 2000, published 2004).
# Where two headings read alike, the source gives them in different places.
# Columns and labels:
# Ca^2+ intake in the cell = experiment: Effect of the compounds on the calcium influx (Ca2+ intake) to the cell; assay type: cell-based; details: compound 20 μg/ml; − = decrease, + = increase
# Description: (§1) In the following Table I some of the preferred plant-derived phenolic compounds according to the present invention, the effect of the compounds on the calcium influx to the cell, the antioxidant effect as well as the chemical structure of the compounds are presented.
# C. pneumoniae = experiment: Direct anti-chlamydial effect of compounds and mixtures on C. pneumoniae (Example 5); assay type: cell-based; details: for inhibition at 50 µM: Chlamydia pneumoniae
# Experimental: Direct Anti-Chlamydial Effect of Plant-Derived Phenolic Compounds, Certain Synthetic Compounds and Mixtures on C. pneumoniae
# The concentration used was 50 μM.
# The cultivated HL cells are infected with C. pneumoniae EB's. The EB's which have invaded the cell are changed into the metabolically active reticulate body (RB) which are dividing by binary fission in the endosome vacuole or inclusion.
# After a certain time (about 72 hr) the C. pneumoniae RB's are condensing back into EB's, after which the inclusions are broken, the host cells are broken and the EB's are liberated. In this method the intention is to verify the inclusions before the breaking up of the host cells.
# On the day preceding the infection the host cells are inoculated on a 24-well plate: the cells are harvested by trypsinisation, they are suspended in ca. 5 ml of the nutrition liquid and counted in a Burker's chamber. Each well are seeded using a concentration of 250000-400000 cells/well for cultivation. Before the addition of the cells to the well is if necessary round cover glass (diameter 13 mm) put for staining. Nutrition liquid is added so that the volume is 1 ml/well. On the following day the cells are infected with the desired bacterium.
# Solution to be used in the infection and containing chlamydiae particles is mixed throughout. The old nutrition liquid is aspirated away. By the infection the inoculum which has been stored at −70° C. is diluted to an IFU concentration of ca. 10^3 so that the volume of the solution is at least 200 μl/well on a 24-well plate. The cells are infected by centrifuging at 1600 rpm (550×g)/1 hr. The nutrition medium is aspirated away and changed to a maintenance medium containing cyclohexamide and also containing the studied compound (DMSO concentration 0.2%), 1 ml/well. The cells are incubated in a 5% CO2 atmosphere at +35° C. The cells infected with C. pneumoniae are incubated for 3 days. After 2-3 days the maintenance medium is removed and the cells washed with 1×1 ml of PBS. To the wells 200 μl of SPG are added for further infection, harvested with a pipette tip and transferred into tubes. This is used for infecting new cells in the same way as above to test the inhibition of infectivity (chlamydiasidic effect).
# The nutrition medium, which is above the cover glass left for staining, is aspirated away. The infected cells are fixed on the cover glass with methanol for 10 min. The cover glass is removed from the well and -transferred onto a suitable fluorescein-conjugated monoclonal antibody on Parafilm in a moist chamber with the cell-containing side down. The cover glass is incubated for 30 min at +37° C. and washed twice with PBS and once with water. Finally it is dried. The cover glass is put with the cell-containing side down on an object glass containing a fixative (e.g. Mounting medium). When viewed under the fluorescent microscope, cell culture specimens infacted with chlamydiae show a characteristic apple-green fluorescence of inclusions against a red counterstained background.
# [1] = Antioxidant effect, IC50 against DPPH; assay type: biochemical; details: read-out: IC50 [moles L^−1] against DPPH′
# Description: as §1
Molecule,Inhibition % (C. pneumoniae; 50 μM) [%],IC50 [1] [µM],"inhibition at 50 µM (C. pneumoniae; 50 μM, read-out: Inhibition %) [%]",further results
O=c1cc(-c2ccc(O)cc2)oc2c([C@@H]3O[C@H](CO)[C@@H](O)[C@H](O)[C@H]3O)c(O)cc(O)c12 [Vitexin],3,,,Effect on Ca^2+ intake [%] (Ca^2+ intake in the cell): −2.12%
CCN(CC)c1ccc2cc(C(=O)c3cccs3)c(=O)oc2c1 [7-diethylamino-3-thenoylcoumarin],100,,,
Oc1ccc(/C=C/c2cc(O)cc(O)c2)cc1 [Resveratrole],54,,,
O=C(O)c1cc(O)c(O)c(O)c1 [Gallic acid],,21.5,27,inhibition at 20 µg/mL (Ca^2+ intake in the cell): 5.33%
COc1cc(C(=O)O)cc(OC)c1O [Syringic acid],,32.6,32,inhibition at 20 µg/mL (Ca^2+ intake in the cell): 10.9%
Methoxy psoralen,100,,,
Cc1ccc2oc(=O)ccc2c1 [6-methylcoumarin],,,71,
COc1ccccc1-c1cc(=O)c2ccc3ccccc3c2o1 [2′-methoxy-α-naphtoflavone],100,,,
"O=c1cc(-c2ccc(O)c(O[C@@H]3O[C@H](CO)[C@@H](O)[C@H](O)[C@H]3O)c2)oc2cc(O[C@@H]3O[C@H](CO)[C@@H](O)[C@H](O)[C@H]3O)cc(O)c12 [Luteolin-3′,7-glucoside]",45,,,Effect on Ca^2+ intake [%] (Ca^2+ intake in the cell): −14.6%
C=C(C)[C@H]1Cc2c(ccc3c2O[C@@H]2COc4cc(OC)c(OC)cc4[C@@H]2C3=O)O1 [Rotenone],,,,inhibition at 50 µM (C. pneumoniae): 100%
C[C@@H]1O[C@@H](O[C@H]2[C@H](Oc3cc(O)c4c(c3)O[C@H](c3ccc(O)cc3)CC4=O)O[C@H](CO)[C@@H](O)[C@@H]2O)[C@H](O)[C@H](O)[C@H]1O [Naringin],66,,,Effect on Ca^2+ intake [%] (Ca^2+ intake in the cell): +6.5%
C[C@@H]1O[C@@H](Oc2c(-c3ccc(O)c(O)c3)oc3cc(O)cc(O)c3c2=O)[C@H](O)[C@H](O)[C@H]1O [Quercitrin],50,12.9,,Effect on Ca^2+ intake [%] (Ca^2+ intake in the cell): +20.1%
Oc1cc(O)c2c(c1)O[C@H](c1ccc(O)c(O)c1)[C@@H](O)C2 [(+)-Catechin],76,,,
O=C1C[C@@H](c2ccc(O)cc2)Oc2cc(O)cc(O)c21 [Naringenin],,> 3670,16,inhibition at 20 µg/mL (Ca^2+ intake in the cell): 56.3%
O=C(O)/C=C/c1ccc(O)c(O)c1 [Caffeic acid],,21.4,78,inhibition at 20 µg/mL (Ca^2+ intake in the cell): -9.71%
CC(=O)CC(c1ccccc1)c1c(O)c2ccccc2oc1=O (stereo not drawn) [3-(α-acetonylbenzyl)-4-hydroxycoumarin],,,0,
O=C(O)c1ccccc1 [Benzoic acid],44,> 8190,,Effect on Ca^2+ intake [%] (Ca^2+ intake in the cell): −9.82%
O=c1c(-c2ccc(O)cc2)coc2cc(O[C@@H]3O[C@H](CO)[C@@H](O)[C@H](O)[C@H]3O)cc(O)c12 [Genistin],,,37,inhibition at 20 µg/mL (Ca^2+ intake in the cell): 3.39%
C[C@@H]1O[C@@H](O[C@@H]2[C@@H](O)[C@H](O)[C@@H](CO)O[C@H]2c2c(O)cc(O)c3c(=O)cc(-c4ccc(O)cc4)oc23)[C@H](O)[C@H](O)[C@H]1O [Vitexin-2″-O-rhamnoside],11,,,Effect on Ca^2+ intake [%] (Ca^2+ intake in the cell): −14.6%
C[C@@H]1O[C@@H](OC[C@H]2O[C@@H](Oc3c(-c4ccc(O)c(O)c4)oc4cc(O)cc(O)c4c3=O)[C@H](O)[C@@H](O)[C@@H]2O)[C@H](O)[C@H](O)[C@H]1O [Rutin],46,10.2,,Effect on Ca^2+ intake [%] (Ca^2+ intake in the cell): −3.88%
CCN(CC)c1ccc2cc(-c3nc4ccccc4n3C)c(=O)oc2c1 [Coumarin 30],50,,,
O=C(O[C@@H]1Cc2c(O)cc(O)cc2O[C@@H]1c1ccc(O)c(O)c1)c1cc(O)c(O)c(O)c1 [(−)-Epicatechin gallate],85,,,
O=c1ccc2ccccc2o1 [Coumarin],,,28,
O=c1ccc2ccc(O)cc2o1 [Umbelliferone],,,75,
O=c1c(-c2ccc(O)cc2)coc2cc(O)cc(O)c12 [Genistein],,> 3700,60,inhibition at 20 µg/mL (Ca^2+ intake in the cell): 54.6%
COc1cc(-c2oc3cc(O)cc(O)c3c(=O)c2O)ccc1O [Isorhamnetin],70,18.1,,Effect on Ca^2+ intake [%] (Ca^2+ intake in the cell): +52.4%

Molecule,Inhibition % (C. pneumoniae; 50 μM) [%],IC50 [1] [µM],"inhibition at 50 µM (C. pneumoniae; 50 μM, read-out: Inhibition %) [%]",further results
COc1c2occc2cc2ccc(=O)oc12 [Xanthotoxin],94,,,
O=c1cc(-c2ccc(O)c(O)c2)oc2cc(O[C@@H]3O[C@H](CO)[C@@H](O)[C@H](O)[C@H]3O)cc(O)c12 [Luteolin-7-glucoside],23,10.7,,Effect on Ca^2+ intake [%] (Ca^2+ intake in the cell): −16.3%
O=c1oc2cc(O)ccc2cc1-c1nc2ccccc2o1 [3-(2-benzoxazoyl)umbelliferone],28,,,
Oc1cc(O)c2c(c1)O[C@H](c1cc(O)c(O)c(O)c1)[C@H](O)C2 [(−)-Epigallocatechin],58,,,
Cc1c(-c2ccccc2)c(=O)oc2ccccc12 [4-methyl-3-phenylcoumarin],,,0,
O=c1cc(-c2ccc(O)c(O)c2)oc2cc(O)cc(O)c12 [Luteolin],,12,100,inhibition at 20 µg/mL (Ca^2+ intake in the cell): 51.4%
COC(=O)c1cc(O)c(O)c(O)c1 [Methyl gallate],,5.09,100,
O=c1cc(-c2ccccc2)oc2ccccc12 [Flavone],,> 4500,90,inhibition at 20 µg/mL (Ca^2+ intake in the cell): 63.5%
CCCOC(=O)c1cc(O)c(O)c(O)c1 [Propyl Gallate],,13.3,100,inhibition at 20 µg/mL (Ca^2+ intake in the cell): 37.9%
O=c1oc2c3c4c(cc2c2c1CCC2)CCCN4CCC3 [Coumarin 106],100,,,
O=c1cc(-c2ccc(O)cc2)oc2cc(O)cc(O)c12 [Apigenin],,> 3700,100,inhibition at 20 µg/mL (Ca^2+ intake in the cell): 29.3%
COc1cc2ccc(=O)oc2cc1O [Scopoletin],,,96,
COc1ccc(-c2cc(=O)c3c(O)cc(O)cc3o2)cc1 [Acacetin],,> 3520,,Effect on Ca^2+ intake [%] (Ca^2+ intake in the cell): −1.39%
O=c1c(-c2ccc(O)cc2)coc2cc(O)ccc12 [Daidzein],51,> 3930,,Effect on Ca^2+ intake [%] (Ca^2+ intake in the cell): −26.2%
Cc1cc(=O)oc2c3c4c(cc12)CCCN4CCC3 [Coumarin 102],63,,,
"O=C(O)c1cc2cc(Br)cc(Br)c2oc1=O [6,8-dibromocoumarin-3-carboxylic acid]",,,0,
Oc1cc(O)c2c(c1)O[C@H](c1ccc(O)c(O)c1)[C@H](O)C2 [(−)-Epicatechin],75,,,
O=c1c(-c2ccc(O)cc2)coc2cc(O[C@@H]3O[C@H](CO)[C@@H](O)[C@H](O)[C@H]3O)ccc12 [Daidzin],0,,,Effect on Ca^2+ intake [%] (Ca^2+ intake in the cell): +7.6%
"COc1ccc2oc(-c3ccccc3OC)cc(=O)c2c1 [6,2′-dimethoxyflavone]",,,73,
COc1cc(/C=C/C(=O)O)ccc1O [Ferulic acid],,44.3,14,inhibition at 20 µg/mL (Ca^2+ intake in the cell): -9.23%
O=C(c1ccccc1)c1cc2c(ccc3ccccc32)oc1=O [3-benzoylbenzo(F)coumarin],62,,,
O=c1cc(-c2ccccc2)oc2c1ccc1ccccc12 [Alpha-naphtoflavone],92,,,
Oc1cc(O)c2c(c1)O[C@H](c1ccc(O)c(O)c1)[C@H](O)[C@H]2c1c(O)cc(O)c2c1O[C@H](c1ccc(O)c(O)c1)[C@H](O)C2 [Procyanidin B2],0,,,
CCCCCCCCCCCCOC(=O)c1cc(O)c(O)c(O)c1 [Dodecyl gallate],,15.4,100,inhibition at 20 µg/mL (Ca^2+ intake in the cell): 40.4%
Oc1cc(O)c2c(c1)O[C@H](c1ccc(O)c(O)c1)[C@H](O)[C@H]2c1c(O)cc(O)c2c1O[C@H](c1ccc(O)c(O)c1)[C@@H](O)C2 [Procyanidin B1],30,,,
